The target of experiment [1] is T1, purified LARP6 protein (Homo sapiens, UniProt Q9BRS8).
T1 sequence (Q9BRS8 1-491): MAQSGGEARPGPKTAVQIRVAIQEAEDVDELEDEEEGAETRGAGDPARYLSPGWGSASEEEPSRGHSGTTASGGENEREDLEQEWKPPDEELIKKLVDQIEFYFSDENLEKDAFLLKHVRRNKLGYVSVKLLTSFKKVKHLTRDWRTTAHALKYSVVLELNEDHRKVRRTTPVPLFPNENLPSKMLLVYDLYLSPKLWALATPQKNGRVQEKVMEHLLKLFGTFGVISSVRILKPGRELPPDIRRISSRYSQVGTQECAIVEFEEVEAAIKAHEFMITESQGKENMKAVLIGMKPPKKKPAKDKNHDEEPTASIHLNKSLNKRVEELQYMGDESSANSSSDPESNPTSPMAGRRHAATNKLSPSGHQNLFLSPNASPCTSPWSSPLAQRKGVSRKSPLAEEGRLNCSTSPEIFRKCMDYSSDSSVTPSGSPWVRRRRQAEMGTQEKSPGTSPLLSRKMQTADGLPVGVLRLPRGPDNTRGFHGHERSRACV
The experiment in a line: Affinity binding of commercial cefixime preparation to purified LARP6, elution and mass spectrometry. The following applies: FIG. 11. The source says:
The component with antifibrotic activity in the commercial cefixime preparations was identified by affinity binding of the commercial cefixime preparations to the purified LARP6 protein, followed by elution of the bound molecular species and their identification by mass spectrometry. […] This component has two diastereomer isoforms which were present in miniscule amounts in the commercial cefixime preparations, but both were sequestered by LARP6 protein.

Experiment [2] deals with type I collagen secretion by human lung fibroblasts. The experiment in a line: Type I collagen secretion by human lung fibroblasts (western blot of medium). The experiment is classed as cell-based. Here is the method:
Based on the ability of the cefixime preparation 1 component to inhibit LARP6/5′SL interaction, cefixime preparation 2 was tested to inhibit type 1 collagen production by human lung fibroblasts. The cells were treated with cefixime preparation 2 in a range of concentrations for 18 hours. The cellular medium was changed and the accumulation of type I collagen into the fresh medium was measured after 3 hours. This provided an estimate of the rate by which the cells can secrete type I collagen. […] At 50 μM, secretion of type I collagen was reduced by about 50%. At 100 μM it was reduced by about 80%. […] This provided evidence that a component of commercial cefixime preparations can act as antifibrotic drugs. Human lung fibroblasts are responsible for lung fibrosis. These cells were cultured in vitro and CID 71314610 was added to the cellular medium at 0.5-50 μM. After overnight incubation the medium was changed and secretion of type I collagen into the fresh medium was analyzed by western blot. The rate of collagen secretion into the medium is a measure of the profibrotic activity of cells. Type I collagen is composed of two polypeptides, α1(I) and α2(I), so both were analyzed. […] In three independent experiments the expression of α1(I) and α2(I) polypeptides was normalized to the expression of fibronectin and plotted as function of CID 71314610 concentration (FIG. 13, bottom panel).

Experiment [3] has as its system fibronectin secretion by human lung fibroblasts. The experiment in a line: Fibronectin secretion by human lung fibroblasts (western blot, specificity control). It is filed as cell-based. The settings on record: same treatment as collagen read-out. Here is the method: At 50 μM, secretion of type I collagen was reduced by about 50%. At 100 μM it was reduced by about 80%. […] This provided evidence that a component of commercial cefixime preparations can act as antifibrotic drugs.
Human lung fibroblasts are responsible for lung fibrosis. These cells were cultured in vitro and CID 71314610 was added to the cellular medium at 0.5-50 μM. After overnight incubation the medium was changed and secretion of type I collagen into the fresh medium was analyzed by western blot. The rate of collagen secretion into the medium is a measure of the profibrotic activity of cells. Type I collagen is composed of two polypeptides, α1(I) and α2(I), so both were analyzed. […] In three independent experiments the expression of α1(I) and α2(I) polypeptides was normalized to the expression of fibronectin and plotted as function of CID 71314610 concentration (FIG. 13, bottom panel).
A general note: In western blotting, separated proteins are transferred to a membrane and probed.

For experiment [4], the target named is T2, LARP6/5′SL RNA complex (Homo sapiens, UniProt Q9BRS8).
T2 sequence (Q9BRS8 1-491): T1 sequence (Q9BRS8 1-491)
The experiment in a line: Gel mobility shift: purified/recombinant LARP6 binding to 5′ stem-loop RNA in vitro. The settings on record: recombinant LARP6, electrophoretic mobility shift assay, FIG. 12. On the procedure: Next, the inhibition of LARP6 binding was tested by gel mobility shift experiments in which binding of purified LARP6 to 5′SL RNA was resolved as protein/RNA complex in gel electrophoresis.
To assess the efficacy of CID 71314610 in inhibiting LARP6 binding to its target sequence, the 5′ stem-loop of type I collagen mRNAs, recombinant LARP6 protein was added to 5′ stem-loop RNA in vitro and CID 71314610 was added at nano-M concentrations to the reaction. The formation of LARP6/RNA complex was analyzed by electrophoretic mobility shift assay.

The record followed here is patent US12257256B2, “Compositions and methods for inhibiting type 1 collagen production” (Florida State University Research Foundation, Inc., priority 2020, dated 2025).

For `CC1OC(=O)C2=C1CS[C@H](CNC(=O)/C(=N\OCC(=O)O)c1csc(N)n1)N2` (mixture of isomers) [CID 71314610, 2-[[[(Z)-1-(2-Aminothiazol-4-yl)-2-[[[(2R,5RS)-5-methyl-7-oxo-1,2,5,7-tetrahydro-4H-furo[3,4-d][1,3]thiazin-2-yl]methyl]amino]-2-oxoethylidene]amino]oxy]acetic acid], the “fraction of input present in cefixime preparation bound by LARP6” value in experiment [1] (one diastereomer) amounted to 50%; in experiment [1] (the other diastereomer) it was 100%. Also, in experiment [2] (0.5-50 μM, overnight incubation, FIG. 13 upper panel), the “secretion of α1(I) and α2(I) collagen polypeptides” value is “inhibited by CID 71314610 in the concentration dependent manner”. Moreover, the “concentration with highly statistically significant inhibition of both polypeptides comprising type I collagen” value in experiment [2] (three independent experiments, normalized to fibronectin, FIG. 13 bottom panel) is 5 µM. Besides, in experiment [3], the secretion of fibronectin entry is “not affected”. For the same compound, the results for the “dissociation of LARP6/RNA complexes” value in experiment [4] (50 nM) and in experiment [4] (100 nM) were 50% and ~90%, respectively.
